Ten molecules from patent US20240409585A1, “MACROCYCLIC IMMUNOMODULATORS” (priority 2021, published 2024) can be followed below.

Each structure is given as a SMILES string. Bridge positions count the residues as written; N and C are the ends. Square brackets hold non-standard residues; d marks the D form. Peptide text beside a SMILES is read from it. * marks the point of attachment. ξ: configuration not given here. Phe(4-(4-F-Ph)) = N[C@@H](Cc1ccc(-c2ccc(F)cc2)cc1)C(=O)O; Phe(4-COOH) = N[C@@H](Cc1ccc(C(=O)O)cc1)C(=O)O; Asp(3,3-Me2) = CC(C)(C(=O)O)[C@H](N)C(=O)O; Bip = N[C@@H](Cc1ccc(-c2ccccc2)cc1)C(=O)O; Phe(2-Cl) = N[C@@H](Cc1ccccc1Cl)C(=O)O; Phe(3-F) = N[C@@H](Cc1cccc(F)c1)C(=O)O; Phe(3-Me) = Cc1cccc(C[C@H](N)C(=O)O)c1; Val(3-OH) = CC(C)(O)[C@H](N)C(=O)O; Cha = N[C@@H](CC1CCCCC1)C(=O)O; Thr(3ξ) = CC(O)[C@H](N)C(=O)O; Carboxymethyl = O=C(O)C*; NMeA = CN[C@@H](C)C(=O)O; Dab = NCC[C@H](N)C(=O)O; Dap = NC[C@H](N)C(=O)O

This experiment deals with T1, PE-labeled human PD-L1-Ig binding to Jurkat cell line over-expressing human PD-1 (Jurkat-PD-1) (Homo sapiens, UniProt Q15116).
T1 construct: expressed in transfected cells; host or cells: Jurkat
Nature of the experiment: Jurkat-PD-1 Cell Binding High-Content Screening Assay (CBA): Method 1. To be noted: Jurkat-hPD-1 cells, PE-labeled PD-L1-Ig 20 nM final; read-out: Jurkat HPDL1 PD1 IC50 (uM) (Method 1).

T1 sequence (Q15116 25-288): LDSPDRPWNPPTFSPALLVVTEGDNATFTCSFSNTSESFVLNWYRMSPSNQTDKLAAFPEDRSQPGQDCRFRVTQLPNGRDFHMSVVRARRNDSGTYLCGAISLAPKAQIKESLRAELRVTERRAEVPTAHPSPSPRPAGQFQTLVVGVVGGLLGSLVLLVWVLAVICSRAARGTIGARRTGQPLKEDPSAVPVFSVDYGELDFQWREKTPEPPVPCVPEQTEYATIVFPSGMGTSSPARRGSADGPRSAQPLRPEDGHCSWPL

`CC(C)C[C@@H]1NC(=O)[C@H](CCCNC(=N)N)NC(=O)[C@@H](CC(C)C)NC(=O)[C@H](C)N(C)C(=O)[C@H](CCCNC(=N)N)NC(=O)[C@H](Cc2ccc(-c3ccccc3)cc2)NC(=O)[C@H](C(C)C)NC(=O)[C@H](Cc2ccccc2Cl)NC(=O)[C@H](CC(=O)O)NC(=O)[C@H](Cc2ccc(O)cc2)NC(=O)[C@H](CC(N)=O)NC(=O)CSC[C@@H](C(=O)N[C@@H](C)C(N)=O)NC(=O)[C@H]([C@@H](C)O)NC(=O)[C@H](C(C)C)NC1=O` [Compound 1193] ({CH2CO}-NYD[Phe(2-Cl)]V[Bip]R[NMeA][dL]RLVTCA-NH2; thioether N-14): the IC50 worked out at 0.35 µM.

On to `CC(C)C[C@@H]1NC(=O)[C@H](Cc2c[nH]c3ccccc23)NC(=O)[C@H](CC(=O)O)NC(=O)[C@H](Cc2ccc(O)cc2)NC(=O)[C@H](Cc2ccccc2)NC(=O)CSC[C@@H](C(=O)N[C@@H](C)C(N)=O)NC(=O)[C@H](CO)NC(=O)[C@H](C(C)C)NC(=O)[C@H](CC(C)C)NC(=O)[C@H](CC(=O)O)NC(=O)[C@@H](C)NC(=O)[C@H](C)N(C)C(=O)[C@H](C(C)C)NC(=O)[C@H](Cc2ccc(-c3ccc(F)cc3)cc2)NC1=O` [Compound 1825] ({CH2CO}-FYDWL[Phe(4-(4-F-Ph))]V[NMeA][dA]DLVSCA-NH2; thioether N-14), for which the IC50 is 0.66 µM.

`Cc1cccc(C[C@@H]2NC(=O)[C@H](CC(=O)O)NC(=O)[C@H](Cc3ccc(OCC(=O)O)cc3)NC(=O)[C@H](CCN)NC(=O)CSC[C@@H](C(=O)N[C@H](C(N)=O)C(C)(C)C(=O)O)NC(=O)[C@H](CO)NC(=O)[C@H](C(C)(C)O)NC(=O)[C@H](CC3CCCCC3)NC(=O)[C@H](CCN)NC(=O)[C@@H](CC(C)C)NC(=O)[C@H](C)N(C)C(=O)[C@H](Cc3ccc(OCC(=O)O)cc3)NC(=O)[C@H](Cc3ccc(-c4ccccc4)cc3)NC(=O)[C@H](Cc3ccc(OCC(=O)O)cc3)NC2=O)c1` [Compound 1847] ({CH2CO}-[Dab]Y(Carboxymethyl)D[Phe(3-Me)]Y(Carboxymethyl)[Bip]Y(Carboxymethyl)[NMeA][dL][Dab][Cha][Val(3-OH)]SC[Asp(3,3-Me2)]-NH2; thioether N-14): the concentration for half-maximal inhibition (IC50) worked out at 0.7 µM.

Take `CC(C)C[C@@H]1NC(=O)[C@H](CCN)NC(=O)[C@@H](CC(C)C)NC(=O)[C@H](C)N(C)C(=O)[C@H](CCCNC(=N)N)NC(=O)[C@H](Cc2ccc(-c3ccccc3)cc2)NC(=O)[C@H](C(C)C)NC(=O)[C@H](Cc2c[nH]c3ccccc23)NC(=O)[C@H](CC(=O)O)NC(=O)[C@H](Cc2cccc(F)c2)NC(=O)[C@H](CC(N)=O)NC(=O)CSC[C@@H](C(=O)N[C@@H](C)C(N)=O)NC(=O)[C@H]([C@@H](C)O)NC(=O)[C@H](C(C)C)NC1=O` [Compound 1309] ({CH2CO}-N[Phe(3-F)]DWV[Bip]R[NMeA][dL][Dab]LVTCA-NH2; thioether N-14): the IC50 came out at 0.09 µM.

As for `CC(C)C[C@@H]1NC(=O)[C@H](CCN)NC(=O)[C@@H](CC(C)C)NC(=O)[C@H](C)N(C)C(=O)[C@H](Cc2cnc[nH]2)NC(=O)[C@H](Cc2ccc(-c3ccccc3)cc2)NC(=O)[C@H](C(C)C)NC(=O)[C@H](Cc2c[nH]c3ccccc23)NC(=O)[C@H](CC(=O)O)NC(=O)[C@H](Cc2ccc(O)cc2)NC(=O)[C@H](CN)NC(=O)CSC[C@@H](C(=O)N[C@@H](C)C(N)=O)NC(=O)[C@H]([C@@H](C)O)NC(=O)[C@H](C(C)C)NC1=O` [Compound 1424] ({CH2CO}-[Dap]YDWV[Bip]H[NMeA][dL][Dab]LVTCA-NH2; thioether N-14), the IC50 is 0.05 µM.

Consider `CC(C)C[C@@H]1NC(=O)[C@H](CCN)NC(=O)[C@@H](CC(C)C)NC(=O)[C@H](C)N(C)C(=O)[C@H](CCCNC(=N)N)NC(=O)[C@H](Cc2ccc(-c3ccc(F)cc3)cc2)NC(=O)[C@H](C(C)C)NC(=O)[C@H](Cc2c[nH]c3ccccc23)NC(=O)[C@H](CC(=O)O)NC(=O)[C@H](Cc2ccc(O)cc2)NC(=O)[C@H](CC(N)=O)NC(=O)CSC[C@@H](C(=O)N[C@@H](C)C(N)=O)NC(=O)[C@H]([C@@H](C)O)NC(=O)[C@H](C(C)C)NC1=O` [Compound 1229] ({CH2CO}-NYDWV[Phe(4-(4-F-Ph))]R[NMeA][dL][Dab]LVTCA-NH2; thioether N-14), for which the concentration for half-maximal inhibition (IC50) was found to be 0.13 µM.

As for `CC(C)C[C@@H]1NC(=O)[C@H](Cc2c[nH]c3ccccc23)NC(=O)[C@H](CC(=O)O)NC(=O)[C@H](Cc2ccc(O)cc2)NC(=O)[C@H](Cc2ccccc2)NC(=O)CSC[C@@H](C(=O)N[C@@H](C)C(N)=O)NC(=O)[C@H](CO)NC(=O)[C@H](C(C)C)NC(=O)[C@H](CC(C)C)NC(=O)[C@H](CCCCN)NC(=O)[C@@H](C)NC(=O)[C@H](C)N(C)C(=O)[C@H](CCC(=O)O)NC(=O)[C@H](Cc2ccc(-c3ccccc3)cc2)NC1=O` [Compound 1767] ({CH2CO}-FYDWL[Bip]E[NMeA][dA]KLVSCA-NH2; thioether N-14), the IC50 is 0.04 µM.

Consider `CC(C)C[C@@H]1NC(=O)[C@H](CCN)NC(=O)[C@@H](CC(C)C)NC(=O)[C@H](C)N(C)C(=O)[C@H](CCCNC(=N)N)NC(=O)[C@H](Cc2ccc(-c3ccccc3)cc2)NC(=O)[C@H](C(C)C)NC(=O)[C@H](Cc2c[nH]c3ccccc23)NC(=O)[C@H](CC(=O)O)NC(=O)[C@H](Cc2ccc(C(=O)O)cc2)NC(=O)[C@H](Cc2cnc[nH]2)NC(=O)CSC[C@@H](C(=O)N[C@@H](C)C(N)=O)NC(=O)[C@H]([C@@H](C)O)NC(=O)[C@H](C(C)C)NC1=O` [Compound 1151] ({CH2CO}-H[Phe(4-COOH)]DWV[Bip]R[NMeA][dL][Dab]LVTCA-NH2; thioether N-14), for which the 50% inhibitory concentration (IC50) was 0.04 µM.

Turning to `Cc1cccc(C[C@@H]2NC(=O)[C@H](CC(=O)O)NC(=O)[C@H](Cc3ccc(OCC(=O)O)cc3)NC(=O)[C@H](C(C)O)NC(=O)CSC[C@@H](C(=O)N[C@@H](CCN)C(N)=O)NC(=O)[C@H](C(C)O)NC(=O)[C@H](C(C)(C)O)NC(=O)[C@H](CC3CCCCC3)NC(=O)[C@H](CCN)NC(=O)[C@@H](CC(C)C)NC(=O)[C@H](C)N(C)C(=O)[C@H](Cc3ccc(OCC(=O)O)cc3)NC(=O)[C@H](Cc3ccc(-c4ccccc4)cc3)NC(=O)[C@H](Cc3ccc(C(=O)O)cc3)NC2=O)c1` (stereo partly drawn) [Compound 2148] ({CH2CO}-[Thr(3ξ)]Y(Carboxymethyl)D[Phe(3-Me)][Phe(4-COOH)][Bip]Y(Carboxymethyl)[NMeA][dL][Dab][Cha][Val(3-OH)][Thr(3ξ)]C[Dab]-NH2; thioether N-14), the IC50 stood at 0.01 µM.

For `Cc1cccc(C[C@@H]2NC(=O)[C@H](CC(=O)O)NC(=O)[C@H](Cc3ccc(OCC(=O)O)cc3)NC(=O)[C@H]([C@@H](C)O)NC(=O)CSC[C@@H](C(N)=O)NC(=O)[C@H](CCC(N)=O)NC(=O)[C@H](C(C)C)NC(=O)[C@H](CC3CCCCC3)NC(=O)[C@H](CCN)NC(=O)[C@@H](CC(C)C)NC(=O)[C@H](C)N(C)C(=O)[C@H](Cc3ccc(OCC(=O)O)cc3)NC(=O)[C@H](Cc3ccc(-c4ccccc4)cc3)NC(=O)[C@H](Cc3ccc(OCC(=O)O)cc3)NC2=O)c1` [Compound 1671] ({CH2CO}-TY(Carboxymethyl)D[Phe(3-Me)]Y(Carboxymethyl)[Bip]Y(Carboxymethyl)[NMeA][dL][Dab][Cha]VQC-NH2; thioether N-14), the IC50 came to 0.09 µM.

The IC50 is the midpoint of a concentration-inhibition curve.
